We go through 16 compounds from ChEMBL document CHEMBL1148236, “Synthesis and structure-activity relationship of 3-arylbenzoxazines as selective estrogen receptor beta agonists” (Bioorg Med Chem Lett, 2004).

Assay [1] has as its target T1, Estrogen receptor beta (Homo sapiens, UniProt Q92731).
Description: Ability to activate estrogen receptor 2-mediated transcription.
Assay [2] addresses T2, Estrogen receptor (Homo sapiens, UniProt P03372).
T2 sequence (P03372 whole entry): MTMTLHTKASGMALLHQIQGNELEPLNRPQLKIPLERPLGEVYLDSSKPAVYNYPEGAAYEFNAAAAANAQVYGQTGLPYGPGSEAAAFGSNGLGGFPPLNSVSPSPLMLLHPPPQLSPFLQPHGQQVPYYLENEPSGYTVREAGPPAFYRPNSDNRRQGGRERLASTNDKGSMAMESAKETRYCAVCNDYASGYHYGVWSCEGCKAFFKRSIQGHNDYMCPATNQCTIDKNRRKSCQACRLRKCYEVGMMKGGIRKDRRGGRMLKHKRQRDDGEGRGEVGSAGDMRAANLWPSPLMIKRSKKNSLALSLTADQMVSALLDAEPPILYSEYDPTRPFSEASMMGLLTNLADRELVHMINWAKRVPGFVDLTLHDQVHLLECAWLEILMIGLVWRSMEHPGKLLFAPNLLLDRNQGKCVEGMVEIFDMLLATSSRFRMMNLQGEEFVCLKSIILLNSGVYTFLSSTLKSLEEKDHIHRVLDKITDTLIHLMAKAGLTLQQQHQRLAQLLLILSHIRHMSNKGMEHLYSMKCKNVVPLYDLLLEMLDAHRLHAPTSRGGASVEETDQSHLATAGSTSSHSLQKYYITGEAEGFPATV
Description: Ability to activate estrogen receptor 1-mediated transcription.

For assay [3], the target named is T2, Estrogen receptor. The source holds these as a separate data set.
Description: Binding affinity towards estrogen receptor alpha by [3H]17-beta-estradiol displacement.
For assay [4], the target named is T1, Estrogen receptor beta. This is another data set of the same source.
Description: Binding affinity towards estrogen receptor beta by [3H]17-beta-estradiol displacement.

T1 sequence (Q92731 whole entry): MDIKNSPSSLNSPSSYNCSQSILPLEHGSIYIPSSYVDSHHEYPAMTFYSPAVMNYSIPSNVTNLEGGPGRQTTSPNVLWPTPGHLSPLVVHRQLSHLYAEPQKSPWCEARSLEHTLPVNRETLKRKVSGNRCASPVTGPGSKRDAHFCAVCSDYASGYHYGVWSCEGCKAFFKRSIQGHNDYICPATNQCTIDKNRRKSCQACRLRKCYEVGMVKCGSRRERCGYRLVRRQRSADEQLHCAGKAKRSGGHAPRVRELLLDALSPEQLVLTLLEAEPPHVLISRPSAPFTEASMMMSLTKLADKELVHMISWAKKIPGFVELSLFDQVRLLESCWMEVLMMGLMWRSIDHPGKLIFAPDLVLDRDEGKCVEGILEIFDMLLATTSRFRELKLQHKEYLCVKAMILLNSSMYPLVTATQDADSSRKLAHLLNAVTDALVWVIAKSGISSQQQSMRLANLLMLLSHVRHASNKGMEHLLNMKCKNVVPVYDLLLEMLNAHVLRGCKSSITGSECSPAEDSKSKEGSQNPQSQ

As to `CCC1Oc2cc(O)cc(O)c2N=C1c1ccc(O)c(Br)c1` (centres undefined), the results for the EC50 in assay [1] and in assay [2] were 180 nM and 2000 nM, respectively. The values for the IC50 in assay [3] and in assay [4] were 5300 nM and 1100 nM, respectively.
The corresponding values for `Oc1ccc2c(c1)CCC1Oc3cc(O)ccc3N=C21` (centres undefined) are 240 nM, 12000 nM, 6000 nM and 2600 nM.
For `CC1Oc2cc(O)cc(O)c2N=C1c1ccc(O)cc1` (single isomer, unassigned) the same measures were 50 nM, 140 nM, 2800 nM and 240 nM.
On to `CC1Oc2cc(O)cc(O)c2N=C1c1ccc(O)cc1` (stereo in doubt; 4i), for which the concentration giving a half-maximal response (EC50) in assay [1] stood at 47 nM; in assay [2], 150 nM. In addition, the concentration for half-maximal inhibition (IC50) in assay [3] was 2900 nM; in assay [4] it was 310 nM.
For `Oc1ccc(C2=Nc3ccc(O)cc3OC2)cc1` the same measures were 160 nM, 6900 nM, 16000 nM and 2900 nM.
The corresponding values for `CC1Oc2cc(O)ccc2N=C1c1ccc(O)cc1` (centres undefined) are 30 nM, 64 nM, 1700 nM and 330 nM.
For `CCC1Oc2cc(O)ccc2N=C1c1ccc(O)cc1` (centres undefined) the same measures were 7 nM, 59 nM, 850 nM and 200 nM.
As to `Oc1ccc(C2=Nc3c(O)cc(O)cc3OC2)cc1`, the EC50 in assay [1] amounted to 270 nM; in assay [2], 1800 nM. For the same compound, the IC50 worked out at 33000 nM in assay [3] and 2800 nM in assay [4].
`CC1(C)Oc2cc(O)cc(O)c2N=C1c1ccc(O)c(Br)c1`: the 50% effective concentration (EC50) in assay [1] was 120 nM; in assay [2] it was 1400 nM. Also, the results for the 50% inhibitory concentration (IC50) in assay [3] and in assay [4] were 6000 nM and 1700 nM, respectively.
The corresponding values for `CC1Oc2cc(O)cc(O)c2N=C1c1ccc(O)cc1` (single isomer, unassigned; enantiomer B) are 74 nM, 290 nM, 6300 nM and 1100 nM.
The corresponding values for `CCC1Oc2cc(O)cc(C)c2N=C1c1ccc(O)c(Br)c1` (centres undefined) are 8 nM, 170 nM, 180 nM and 90 nM.
The corresponding values for `Oc1ccc2c(c1)CC1Oc3cc(O)ccc3N=C21` (centres undefined) are 77 nM, 900 nM, 5600 nM and 1400 nM.
On to `CCC1Oc2cc(O)cc(O)c2N=C1c1ccc(O)cc1` (centres undefined), for which the concentration giving a half-maximal response (EC50) is 26 nM in assay [1] and 170 nM in assay [2]. For the same compound, the values for the 50% inhibitory concentration (IC50) in assay [3] and in assay [4] were 1200 nM and 120 nM, respectively.
Consider `CCCC1Oc2cc(O)ccc2N=C1c1ccc(O)cc1` (centres undefined), for which the EC50 in assay [1] is 18 nM; in assay [2] it was 1700 nM. For the same compound, the IC50 in assay [3] worked out at 1700 nM; in assay [4], 320 nM.
In the case of `Cc1cc(O)cc2c1N=C(c1ccc(O)c(Br)c1)C(C)O2` (centres undefined), the 50% effective concentration (EC50) in assay [1] was found to be 16 nM; in assay [2], 46 nM. The figures for the 50% inhibitory concentration (IC50) in assay [3] and in assay [4] were 320 nM and 90 nM, respectively.
The corresponding values for `CC1(C)Oc2cc(O)ccc2N=C1c1ccc(O)cc1` are 140 nM, 3100 nM, 8600 nM and 5600 nM.

For orientation: EC50 means the midpoint of the concentration-response curve. Low readings indicate higher potency in that assay, high ones lower potency in that assay. The IC50 is the point on the concentration scale where inhibition reaches its midpoint. Lower therefore signals greater potency in that assay.
